Biological target: T1, p56lck GST-SH2 (lck SH2 domain) (Homo sapiens, UniProt P06239)
T1 construct: GST (N)
Test: Receptor-ligand equilibrium binding constants by surface plasmon resonance (biosensor), lck SH2 domain
Description: The general methods for the determination of Receptor-Ligand Kinetic and Equilibrium Binding Constants using Surface Plasmon Resonance as applied to the lck SH2 Domain have been described in: M. M. Morelock, R. H. Ingraham, R. Betageri.
General Biosensor Methods.
The mobile phase buffer, 10 mM HEPES, pH 7.4, 150 mM NaCl, and 0.05% P-20, was maintained at a flow rate of 5 μL/min in all experiments. All buffers and protein solutions were filtered through a 0.2 um filter and degassed immediately before use.
Strepavidin was diluted to 0.25 mg/ml in 20 mM NaOAc buffer, pH 4.5 and immobilized by free amine coupling to approximately 3000 RU for all 4 flow cells from a single sensor chip .
Surface Kd Determinations.
The surface was regenerated by 4μL of 20 mM HCl followed by 4 μL of 150 mM Tris base. The values used in the analysis were the equilibrium plateau values from which the sample refractive index has been subtracted. For the data analyzed for linear function the equilibrium plateau values without the sample refractive index subtracted were used. Free solution Kd determinations. In a 96 well microtiter plate 20 nM SH2 domain suspended in running buffer containing 0.2 mg/ml BSA and 1 mM DT'T was distributed in 100 μL per well. The highest concentration of compound tested was added to the last well and titrated with 2 fold dilutions for a final of 10 concentrations to be run. 25 μL of the mixture was injected over a strepavidin-biotin-ε-aminohexanoic acid-EGQpYEEIPIA surface and regenerated with 4 μL of 20 mM HCl. […], of 150 mM Tris base was injected after every 11 samples. Typically 8 assays were run in an overnight programmed run.

[1] = Table 1, compounds of formula (II)
[2] = Table 2, compounds of formula (III)

T1 sequence (P06239 127-224 limits assumed): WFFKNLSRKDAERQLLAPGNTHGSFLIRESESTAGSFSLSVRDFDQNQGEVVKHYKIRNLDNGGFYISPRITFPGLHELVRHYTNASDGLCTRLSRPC

Compound	Kd [1] [µM]	Kd [2] [µM]
COc1ccc(Cn2ccc(C)c(NC(=O)[C@H](Cc3ccc(NC(=O)C(=O)O)cc3)NC(=O)Nc3nc4ccccc4s3)c2=O)cc1 [Compound 7]	> 11	–
Cc1ccn(CC2CCOC2)c(=O)c1NC(=O)C(Cc1ccc(C(C)(C)C(=O)O)cc1)NC(=O)C(C)(C)c1ccc2ccccc2c1 (stereo not shown) [Compound 212]	23	–
CCN(CC)c1ccc(CC(=O)N[C@@H](Cc2ccc(NC(=O)C(=O)O)cc2)C(=O)Nc2c(C)ccn(Cc3ccc(OC)cc3)c2=O)cc1 [Compound 40]	1.9	–
COc1ccc(Cn2cc(Br)c(C)c(NC(=O)[C@H](Cc3ccc(C(C)(C)C(=O)O)cc3)NC(=O)C(C)(F)c3ccc(C(F)(F)F)cc3)c2=O)cc1 (stereo partly shown) [Compound 234]	1.6	–
Cc1ccn(CC2CCOC2)c(=O)c1NC(=O)C(Cc1ccc(C(C)(C)C(=O)O)cc1)NC(=O)Cc1ccc2ccccc2c1 (stereo not shown) [Compound 211]	4.9	–
CCCCCCn1ccc(C)c(NC(=O)C(Cc2ccc(C(C)(C)C(=O)O)cc2)NC(=O)Cc2ccccc2OC)c1=O (stereo not shown) [Compound 207]	1.7	–
COc1ccc(Cn2ccc(C)c(NC(=O)[C@H](Cc3ccc(NC(=O)C(=O)O)cc3)NC(=O)Cc3ccc4ccccc4c3)c2=O)cc1 [Compound 32]	0.35	–
COc1ccc(Cn2ccc(C)c(NC(=O)[C@H](Cc3ccc(C(C)C(=O)O)cc3)NC(=O)Cc3cccc4ccccc34)c2=O)cc1 (stereo partly shown) [Compound 3]	5.1	–
COc1ccc(Cn2ccc(C)c(NC(=O)[C@H](Cc3ccc(NC(=O)C(=O)O)cc3)NC(=O)Cc3c[nH]c4ccc(O)cc34)c2=O)cc1 [Compound 27]	2.5	–
COc1ccc(Cn2ccc(C)c(NC(=O)[C@H](Cc3ccc(CS(=O)(=O)O)cc3)NC(=O)Cc3cccc4ccccc34)c2=O)cc1 [Compound 42, 3-[2'-(S)-(1'"-Naphthylacetyl)amino-3'-(4"-sulfonylmethyl)benzene]propanoylamino-1-(4-methoxybenzyl)-4-methyl-2-pyridone]	1.5	–
Cc1ccn(Cc2ccoc2)c(=O)c1NC(=O)C(Cc1ccc(C(C)(C)C(=O)O)cc1)NC(=O)Cc1cccc2ccccc12 (stereo not shown) [Compound 201]	6.7	–
COc1ccccc1Cn1ccc(C)c(NC(=O)[C@H](Cc2ccc(CC(=O)O)cc2)NC(=O)Cc2cccc3ccccc23)c1=O [Compound 19]	37.2	–
COc1ccc(Cn2ccc(C)c(NC(=O)[C@H](Cc3ccc(CC(=O)O)cc3)NC(=O)Cc3cc(=O)oc4cc(N(C)C)ccc34)c2=O)cc1 [Compound 64]	17	–
COc1ccc(Cn2ccc(C)c(NC(=O)[C@H](Cc3ccc(CC(=O)O)cc3)NC(=O)COc3ccc4ccccc4c3)c2=O)cc1 [Compound 166]	1.7	–
COc1ccc(Cn2ccc(C)c(NC(=O)[C@H](Cc3ccc(CC(=O)O)cc3)NC(=O)Cc3ccc(Oc4ccccc4)cc3)c2=O)cc1 [Compound 71]	14	–
Cc1ccn(CCc2ccccc2)c(=O)c1NC(=O)C(Cc1ccc(C(C)(C)C(=O)O)cc1)NC(=O)Cc1cccc2ccccc12 (stereo not shown) [Compound 199]	9.1	–
COc1ccc(Cn2ncc(C)c(NC(=O)C(Cc3ccc(C(C)(C)C(=O)O)cc3)NC(=O)Cc3ccccc3N)c2=O)cc1 (stereo not shown) [Compound 246]	–	30

Compound	Kd [1] [µM]	Kd [2] [µM]
COc1ccc(Cn2ccc(C)c(NC(=O)[C@H](Cc3ccc(CC(=O)O)cc3)NC(=O)C3(c4ccccc4)CC3)c2=O)cc1 [Compound 77]	20	–
COc1ccc(Cn2ccc(C)c(NC(=O)[C@H](Cc3ccc(NC(=O)C(=O)O)cc3)NC(=O)OC(C)(C)C)c2=O)cc1 [Compound 4]	42.5	–
CCCCCn1ccc(C)c(NC(=O)C(Cc2ccc(C(C)(C)C(=O)O)cc2)NC(=O)C(C)(C)c2ccc3ccccc3c2)c1=O (stereo not shown) [Compound 193]	4.1	–
COc1ccc(Cn2ccc(C)c(NC(=O)C(Cc3ccc(C(C)(C)C(=O)O)cc3)NC(=O)C(C)(C)c3ccc4ccccc4c3)c2=O)cc1O (stereo not shown) [Compound 232]	33	–
COc1ccc(Cn2ccc(C)c(NC(=O)[C@H](Cc3ccc(C(O)C(=O)O)cc3)NC(=O)Cc3cccc4ccccc34)c2=O)cc1 (stereo partly drawn) [Compound 8, 3-[2'-(S)-(1""-Naphthylacetyl)amino-3'-[4"-(1'"-hydroxy-1'"-carboxy)methyl]benzene]propanoylamino-1-(4-methoxybenzyl)-4-methyl-2-pyridone]	0.99	–
COc1ccc(Cn2ccc(C)c(NC(=O)[C@H](Cc3ccc(NC(=O)C(=O)O)cc3)NC(=O)Cc3ccc(NC(C)C)cc3)c2=O)cc1 [Compound 47]	2.1	–
COc1ccc(Cn2ccc(C)c(NC(=O)C(Cc3ccc(C(C)(C)C(=O)O)cc3)N(C)C(=O)C(C)(C)c3ccc4ccccc4c3)c2=O)cc1 (stereo not shown) [Compound 161]	460	–
COc1ccc(Cn2ccc(C)c(NC(=O)[C@H](Cc3ccc(NC(=O)C(=O)O)cc3)NC(=O)Cc3cccc([N+](=O)[O-])c3)c2=O)cc1 [Compound 105]	0.82	–
COc1ccc(Cn2ccc(C)c(NC(=O)[C@H](Cc3ccc(C(C)(C)C(=O)O)cc3)NC(=O)[C@@H](C)c3cccc4ccccc34)c2=O)cc1 [Compound 45]	3.4	–
COc1ccc(Cn2ccc(C)c(NC(=O)[C@H](Cc3ccc(NC(=O)C(=O)O)cc3)NC(=O)Cc3ccccc3N(C)C)c2=O)cc1 [Compound 35]	4	–
COc1ccc(Cn2ccc(C)c(NC(=O)[C@H](Cc3ccc(NC(=O)C(=O)O)cc3)NC(=O)Cc3ccc(Br)cc3)c2=O)cc1 [Compound 36]	1.5	–
COc1ccc(Cn2cc(/C=C/C(N)=O)c(C)c(NC(=O)C(Cc3ccc(C(C)(C)C(=O)O)cc3)NC(=O)Cc3ccc4ccccc4c3)c2=O)cc1 (racemic) [Compound 221, 3-[2'-(R,S)-(2""-Naphthylacetyl)amino-3'-[4"-(1'"-carboxy-1'"-methyl)ethyl]benzene]propanoylamino-5-acrylamido-1-(4-methoxybenzyl)-4-methyl-2-pyridone]	0.17	–
COc1ccc(Cn2ccc(C)c(NC(=O)[C@H](Cc3ccc(CC(=O)O)cc3)NC(=O)COc3cccc4ccccc34)c2=O)cc1 [Compound 72]	2.5	–
COc1ccc(Cn2ccc(C)c(NC(=O)[C@H](Cc3ccc(NC(=O)C(=O)O)cc3)NC(=O)Cc3csc(-c4cnccn4)n3)c2=O)cc1 [Compound 17]	3.4	–
Cc1ccn(C/C=C/c2ccccc2)c(=O)c1NC(=O)C(Cc1ccc(C(C)(C)C(=O)O)cc1)NC(=O)Cc1ccc2ccccc2c1 (racemic) [Compound 115]	1.2	–
COc1ccc(Cn2ccc(C)c(NC(=O)[C@H](Cc3ccc(NC(=O)C(=O)O)cc3)NC(=O)Cc3sc(N)nc3-c3ccccc3)c2=O)cc1 [Compound 11]	2.9	–
Cc1ccn(Cc2ccoc2)c(=O)c1NC(=O)C(Cc1ccc(C(C)(C)C(=O)O)cc1)NC(=O)C(C)(C)c1ccc2ccccc2c1 (stereo not shown) [Compound 203]	11	–

The next lines start with the values.

Kd [1] [µM]	Kd [2] [µM]	Compound
5.4	–	COc1ccc(Cn2ccc(C)c(NC(=O)[C@H](Cc3ccc(N(O)C(=O)C(=O)O)cc3)NC(C)=O)c2=O)cc1 [Compound 95]
64	–	Cc1ccn(CC2CCCCC2)c(=O)c1NC(=O)[C@H](Cc1ccc(CC(=O)O)cc1)NC(=O)C(C)(C)C [Compound 67]
8.3	–	COc1ccc(Cn2ccc(C)c(NC(=O)[C@H](Cc3ccc(NC(=O)C(=O)O)cc3)NC(C)=O)c2=O)cc1 [Compound 6]
–	6	COc1ccc(Cn2nc(C)c(C)c(NC(=O)[C@H](Cc3ccc(CC(=O)O)cc3)NC(=O)Cc3cccc4ccccc34)c2=O)cc1 [Compound 244]
1.5	–	Cc1ccn(Cc2ccc(C(C)C)cc2)c(=O)c1NC(=O)[C@H](Cc1ccc(C(C)(C)C(=O)O)cc1)NC(=O)Cc1c[nH]c2ccccc12 [Compound 100]
3.3	–	COc1ccc(Cn2ccc(C)c(NC(=O)[C@H](Cc3ccc(CC(=O)O)cc3)NC(=O)COc3cc4ccccc4cn3)c2=O)cc1 [Compound 86]
12	–	COc1ccc(Cn2ccc(C)c(NC(=O)[C@H](Cc3ccc(CC(=O)O)cc3)NC(=O)Cc3ccc(N(C)C)cc3)c2=O)cc1 [Compound 93]
0.19	–	COc1ccc(Cn2ccc(C)c(NC(=O)[C@H](Cc3ccc(C(C)(C)C(=O)O)cc3)NC(=O)Cc3ccc(C)cc3)c2=O)cc1 [Compound 114]
3.6	–	COC1CCC(Cn2ccc(C)c(NC(=O)C(Cc3ccc(C(C)(C)C(=O)O)cc3)NC(=O)Cc3ccc(C(F)(F)F)cc3)c2=O)CC1 (stereo not shown) [Compound 148]
4.4	–	COc1ccc(Cn2ccc(C)c(NC(=O)[C@H](Cc3ccc(CC(=O)O)cc3)NC(=O)Cc3cccc4ccccc34)c2=O)cc1 [Compound 88]
3.2	–	COc1ccc(Cn2ccc(C)c(NC(=O)[C@H](Cc3ccc(NC(=O)C(=O)O)cc3)NC(=O)Cc3ccccc3Br)c2=O)cc1 [Compound 38]
2.1	–	COc1c(F)c(F)c(Cn2ccc(C)c(NC(=O)C(Cc3ccc(C(C)(C)C(=O)O)cc3)NC(=O)Cc3ccc4ccccc4c3)c2=O)c(F)c1F (stereo not shown) [Compound 153]
13	–	COc1ccc(Cn2ccc(C)c(NC(=O)[C@H](Cc3ccc(CC(=O)O)cc3)NC(=O)C3(c4ccccc4)CCCC3)c2=O)cc1 [Compound 78]
13	–	COCCOCn1ccc(C)c(NC(=O)C(Cc2ccc(C(C)(C)C(=O)O)cc2)NC(=O)Cc2ccc3ccccc3c2)c1=O (stereo not shown) [Compound 189]
2.7	–	CCCCCCn1cc(C(=O)OC)c(C)c(NC(=O)C(Cc2ccc(C(C)(C)C(=O)O)cc2)NC(=O)C(C)(C)c2ccc3ccccc3c2)c1=O (stereo not shown) [Compound 121]

— patent US6284768A, “Src family SH2 domain inhibitors” (Boehringer Ingelheim Pharmaceuticals, Inc., priority 1999, dated 2001)
